Results as given in US20110318298A1, “VIRAL INFECTION THERAPEUTIC DRUG CONTAINING POLYALKYLENEIMINE” (Nippon Shokubai Co., Ltd., priority 2008, published 2011).
In brackets after ≈: the same amount, converted by molar mass. Read-outs that look alike come from different tables or passages of the source.

Assays:
[1] = test system: Vero cells
Description: (§1) A test for evaluation of the cytotoxicity of polyethyleneimine in each cell was carried out according to the following procedure.
(§2) The cell proliferation count was then measured by trypan blue staining.

[2] = test system: HSV-2; assay: Inhibitory effect on HSV-2 virus invasion of the cells (Vero cells, 37° C.); format: cell-based, herpes simplex virus type 2; settings: for Amount of virus invaded in 30 minutes / Amount of virus invaded in 3 hours: Vero cells, 37° C., control = 100%
Description: Subsequently, the inhibitory effect of polyethyleneimine in the stage in which HSV-2 adsorbed to the host cells invades the cells was investigated.

[3] = test system: HSV-2; assay: Inhibitory effect on HSV-2 virus adsorption to the cells (Vero cells, 4° C.); settings: for Amount of virus adsorbed to host cells: Vero cells, 4° C. one hour, control = 100%
[4] = in vitro; settings: African green monkey
Description: as §1, §2

[5] = test system: HSV-2; assay: Comparison of SP-012 and acyclovir in HSV-2-infected mice (Example 9); settings: for Number of death/total number: 0.2 mg per administration to the genital until seven days after infection, 15 days observation; for Number of HSV-2 positive mouse/total number: genital wash, first day to 12 days after infection
Description: Five to six-week-old female BALB/c mice were locally (genital) inoculated with HSV-2 in an amount of 20 μl (containing a reduced viral amount of 1×10^4 PFU per mouse in consideration of tracing also untreated control mice). […] From the first day to 12 days after the viral infection, the genital was washed with phosphate-buffered physiological saline every day, and the amount of virus therein was measured in each mouse. Also, for 15 days, the severity of the development of the disease and the case of death were recorded.

[6] = test system: HSV-2; assay: Anti-viral activity on HSV-2, plaque assaying in Vero cells; settings: Human alphaherpesvirus 2, Vero
[7] = test system: MDCK cells; assay: Cytotoxicity (CC50), cell count by trypan blue staining, MDCK cells; format: cell-based, dog

polyethyleneimine [SP-200]
Cytotoxicity (CC50) [1]: 0.0045 µg/mL

Nc1nc2c(ncn2COCCO)c(=O)[nH]1 [Acyclovir, acyclovir]
Amount of virus invaded in 30 minutes ([2]; 1 μg/ml): 99%
Amount of virus invaded in 30 minutes ([2]; 10 μg/ml): 94%
Amount of virus invaded in 30 minutes ([2]; 100 μg/ml): 87%
Amount of virus invaded in 3 hours ([2]; 100 μg/ml): 89%
Amount of virus invaded in 30 minutes ([2]; 1000 μg/ml): 68%
Amount of virus invaded in 3 hours ([2]; 1000 μg/ml): Toxic
Amount of virus invaded in 30 minutes ([2]; 10000 μg/ml): Toxic
Amount of virus invaded in 3 hours ([2]; 10000 μg/ml): Toxic
Inhibition of viral invasion, overall finding ([2]; over the tested concentrations): did not inhibit HSV-2 virus invasion of the cells
Amount of virus adsorbed to host cells ([3]; 100 μg/ml): 76%
Amount of virus adsorbed to host cells ([3]; 1000 μg/ml): Toxic
Amount of virus adsorbed to host cells ([3]; 10000 μg/ml): Toxic
Inhibition of viral adsorption, overall finding ([3]; over the tested concentrations): almost no dose-dependent adsorption-inhibitory effect
CC50 at 72 h [4]: 890 µg/mL (≈ 3950 µM)
Number of death/total number [5]: 0/10
Number of death/total number ([5]; listed as acyclovir): No mice died
Development of the disease (genital inflammation) ([5]; 0.2 mg per administration, 10 mice): transient inflammation
Number of HSV-2 positive mouse/total number ([5]; 0.2 mg per administration): 1/10
Number of HSV-2 positive mouse/total number ([5]; 0.2 mg per administration, listed as acyclovir): the virus was detected in one out of 10 mice
IC50 ([6]; read-out: Anti-viral activity (IC50) A): 0.91 µg/mL (≈ 4.04 µM)
IC50 ([6]; read-out: Anti-viral activity (IC50) B): 0.92 µg/mL (≈ 4.09 µM)

polyethyleneimine [P-1000]
Cytotoxicity (CC50) [1]: 0.0044 μl/ml

polyethyleneimine [SP-012]
Cytotoxicity (CC50) [7]: 0.34 μl/ml

polyethyleneimine [SP-018]
Cytotoxicity (CC50) [1]: 0.057 μl/ml
Cytotoxicity (CC50) [7]: 0.064 μl/ml

polyethyleneimine [SP-006]
Cytotoxicity (CC50) [1]: 1.1 μl/ml
Cytotoxicity (CC50) [7]: 0.57 μl/ml

polyethyleneimine [SP-003]
Cytotoxicity (CC50) [1]: 0.071 μl/ml
Cytotoxicity (CC50) [7]: 0.057 μl/ml
